One assay addresses T1, B. malayi iPGM (Brugia malayi, UniProt Q4VWF8).
T1 sequence (Q4VWF8 1-515): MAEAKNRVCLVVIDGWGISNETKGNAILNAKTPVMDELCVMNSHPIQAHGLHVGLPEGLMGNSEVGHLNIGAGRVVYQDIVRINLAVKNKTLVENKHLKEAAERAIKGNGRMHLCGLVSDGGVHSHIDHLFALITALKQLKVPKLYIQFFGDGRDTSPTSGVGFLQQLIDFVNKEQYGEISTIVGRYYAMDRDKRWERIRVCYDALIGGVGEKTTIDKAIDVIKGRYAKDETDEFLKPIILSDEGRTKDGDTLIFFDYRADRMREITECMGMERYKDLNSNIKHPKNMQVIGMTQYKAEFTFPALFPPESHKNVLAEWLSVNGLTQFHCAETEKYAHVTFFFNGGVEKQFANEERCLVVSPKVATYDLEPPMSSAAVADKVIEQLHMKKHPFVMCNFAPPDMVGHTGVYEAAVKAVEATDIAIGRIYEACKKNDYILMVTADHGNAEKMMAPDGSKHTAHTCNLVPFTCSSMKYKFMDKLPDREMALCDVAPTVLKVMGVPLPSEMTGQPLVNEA
Kind of assay: biochemical. It is filed as binding. Conditions: for pKd: KD, Supplementary Table 5, SPR, B.m. iPGM, unit inferred.

In assay [1] the target is T2, E. coli iPGM (Escherichia coli, UniProt P37689). Kind of assay: SPR binding kinetics and saturation binding, biotinylated iPGM on Biotin CAPture chip (Biacore S200). To be noted: for koff / kon: LoQ = limit of quantitation; for pKd: unit inferred. A general note: SPR reads the build-up and loss of mass on a sensor chip optically.
The target in another assay is C. elegans iPGM (Caenorhabditis elegans, UniProt G5EFZ1). The description is as above.
The target in the next assay is D. immitis iPGM (Dirofilaria immitis, UniProt F4ZE01). Kind of assay: biochemical.
In assay [2] the target is T2, E. coli iPGM. Nature of the assay: biochemical. To be noted: […].
Setting [3] is: Supplementary Table 5, SPR, E.c. iPGM.
Where [4] appears, read: SPR, 25 °C, global fit to 1:1 binding model.

pKd: −log10 of the molar value. Read-outs that look alike come from different tables or passages of the source. Bridge positions count the residues as written; N and C are the ends. Square brackets hold non-standard residues; d marks the D form. Peptide text beside a SMILES is read from it. Abu = CC[C@H](N)C(=O)O

Consider `CC[C@@H]1NC(=O)[C@@H](Cc2ccc(O)cc2)NC(=O)CSC[C@@H](C(=O)N[C@@H](Cc2ccc(O)cc2)C(=O)N[C@@H](CC(C)C)C(=O)N[C@@H](Cc2ccc(O)cc2)C(=O)NCC(=O)N[C@H](C(=O)N[C@@H](CS)C(N)=O)[C@@H](C)O)NC(=O)[C@H](Cc2ccc(O)cc2)NC(=O)[C@H](CC(=O)O)NC(=O)CNC(=O)[C@@H]2CCCN2C(=O)[C@H](Cc2ccc(O)cc2)NC1=O` [Ce-2 D2Abu] ({CH2CO}-[dY][Abu]YPGDYCYLYGTC-NH2; thioether N-8), for which the figures for the off-rate (koff) on B. malayi iPGM, on E. coli iPGM [1] (setting [3]) and at C. elegans iPGM were 0.000125 s⁻¹, 0.00202 s⁻¹ and 4.55e-05 s⁻¹, respectively. Further, the values for the on-rate (kon) at B. malayi iPGM, at E. coli iPGM [1] (setting [3]) and on C. elegans iPGM were 561000 M⁻¹ s⁻¹, 270000 M⁻¹ s⁻¹ and 3.04e+06 M⁻¹ s⁻¹, respectively. The pKd was 9.65 at B. malayi iPGM, 7.60 at E. coli iPGM [1] (setting [3]) and 10.80 on C. elegans iPGM. The IC50 on D. immitis iPGM (Di iPGM Ave IC50 (M)) worked out at 1.52e-09 M; against D. immitis iPGM (IC50 (M)), 1.57e-09 M.
At B. malayi iPGM, `CC(C)C[C@H](NC(=O)[C@H](Cc1ccc(O)cc1)NC(=O)[C@@H]1CSCC(=O)N[C@H](Cc2ccc(O)cc2)C(=O)N[C@@H](CC(=O)O)C(=O)N[C@@H](Cc2ccc(O)cc2)C(=O)N2CCC[C@H]2C(=O)NCC(=O)N[C@@H](CC(=O)O)C(=O)N[C@@H](Cc2ccc(O)cc2)C(=O)N1)C(=O)N[C@@H](Cc1ccc(O)cc1)C(=O)NCC(=O)NCC(=O)NO` [Ce-2 T13G, C14NHOH] had a koff of 0.0284 s⁻¹, an association rate constant (kon) of 110000 M⁻¹ s⁻¹ and a negative-log Kd (pKd) of 6.61. For the same molecule, on E. coli iPGM [1] (setting [3]), the koff entry is “> LOQ” and the kon result is “> LOQ”. For the same molecule, at C. elegans iPGM, the pKd was 7.79, the dissociation rate constant (koff) is 0.00251 s⁻¹ and the kon turned out to be 197000 M⁻¹ s⁻¹. Besides, the half-inhibitory concentration (IC50) on D. immitis iPGM (Di iPGM Ave IC50 (M)) was 1.84e-07 M.
Consider `CC(C)C[C@H](NC(=O)[C@H](Cc1ccc(O)cc1)NC(=O)[C@@H]1CSCC(=O)N[C@H](Cc2ccc(O)cc2)C(=O)N[C@@H](CC(=O)O)C(=O)N[C@@H](Cc2ccc(O)cc2)C(=O)N2CCC[C@H]2C(=O)NCC(=O)N[C@@H](CC(=O)O)C(=O)N[C@@H](Cc2ccc(O)cc2)C(=O)N1)C(=O)N[C@@H](Cc1ccc(O)cc1)C(=O)NCC(=O)N[C@@H](Cc1c[nH]cn1)C(=O)N[C@@H](CS)C(N)=O` [Ce-2 T13H], for which, at B. malayi iPGM, the koff is 0.000587 s⁻¹, the kon was found to be 1.06e+06 M⁻¹ s⁻¹ and the pKd is 9.26. On E. coli iPGM [1] (setting [3]), this molecule had a koff of 0.0144 s⁻¹, a kon of 103000 M⁻¹ s⁻¹ and a pKd of 7.20. On C. elegans iPGM, the pKd is 10.58, the koff came to 1.98e-05 s⁻¹ and the kon is 752000 M⁻¹ s⁻¹. This molecule showed an IC50 at D. immitis iPGM (IC50 (M)) of 3.77e-09 M.
In the case of `CC(C)C[C@H](NC(=O)[C@H](Cc1ccc(O)cc1)NC(=O)[C@@H]1CSCC(=O)N[C@H](Cc2ccc(O)cc2)C(=O)N[C@@H](CC(=O)O)C(=O)N[C@@H](Cc2ccc(O)cc2)C(=O)N2CCC[C@H]2C(=O)NCC(=O)N[C@@H](CC(=O)O)C(=O)N[C@@H](Cc2ccc(O)cc2)C(=O)N1)C(=O)N[C@@H](Cc1ccc(O)cc1)C(=O)NCC(=O)N[C@@H](CO)C(=O)N[C@@H](CS)C(N)=O` [Ce-2 Thr13Ser], the koff at B. malayi iPGM is 7.84e-05 s⁻¹; on B. malayi iPGM (setting [4]) it was 7.8e-05 s⁻¹; at E. coli iPGM [1] (SPR, 25 °C, global fit to 1:1 binding model, read-out: koff), 0.00033 s⁻¹; at E. coli iPGM [1] (setting [3]), 0.000333 s⁻¹; on C. elegans iPGM, 7.83e-05 s⁻¹; at C. elegans iPGM (setting [4]) it was 0.00017 s⁻¹. Further, the association rate constant (kon) worked out at 1.47e+06 M⁻¹ s⁻¹ at B. malayi iPGM; 1.6e+06 M⁻¹ s⁻¹ at B. malayi iPGM (setting [4]); 240000 M⁻¹ s⁻¹ on E. coli iPGM [1] (SPR, 25 °C, global fit to 1:1 binding model, read-out: kon); 236000 M⁻¹ s⁻¹ at E. coli iPGM [1] (setting [3]); 2.86e+06 M⁻¹ s⁻¹ on C. elegans iPGM; 2.9e+06 M⁻¹ s⁻¹ on C. elegans iPGM (setting [4]). For the same molecule, the pKd at B. malayi iPGM is 10.07; at E. coli iPGM [1] (setting [3]) it was 8.88; at C. elegans iPGM it was 10.54. In addition, the midpoint of inhibition on D. immitis iPGM (IC50 (M)), the IC50, lay at 2.56e-09 M.
As to `CC(C)C[C@H](NC(=O)[C@H](Cc1ccc(O)cc1)NC(=O)[C@@H]1CSCC(=O)N[C@H](Cc2ccc(O)cc2)C(=O)N[C@@H](CC(=O)O)C(=O)N[C@@H](Cc2ccc(O)cc2)C(=O)N2CCC[C@H]2C(=O)N[C@@H](CC(C)C)C(=O)N[C@@H](CC(=O)O)C(=O)N[C@@H](Cc2ccc(O)cc2)C(=O)N1)C(=O)N[C@@H](Cc1ccc(O)cc1)C(N)=O` [Ce-2d G5L], the IC50 at E. coli iPGM [2] amounted to 13.2 µM.

In general, koff refers to the first-order rate constant of dissociation. Broadly, the kon is a measure of how fast the partners come together. Broadly, the pKd is the Kd on a negative log10 scale, so that one unit is a factor of ten. A lower pKd goes with a high Kd. As a reminder, the IC50 is the concentration that gives 50% inhibition. A lower IC50 goes with greater potency.

The values are drawn from paper PMC8113725, “Structure–activity relationship of ipglycermide binding to phosphoglycerate mutases” (The Journal of Biological Chemistry, 2021).
